Experimental data: US4352811A, “3-(1-Substituted-4-piperidyl)-1,2-benzisoxazoles” (Hoechst-Roussel Pharmaceuticals Inc., priority 1981, dated 1982)
Structures can show the parent of a compound that is named as a salt.

tested on: apomorphine climbing; experiment: Neuroleptic activity in the climbing mice assay (apomorphine-induced climbing); format: in vivo, mice (CK-1 male); settings: Mus musculus, ip, intraperitoneal 30 min before apomorphine 1.5 mg/kg s.c., climbing scored at 10, 20 and 30 min, linear regression, read-out: NEUROLEPTIC ACTIVITY (ED50 mg/kg)
Method: The subject CK-1 male mice (23-27 grams) are group-housed under standard laboratory conditions. The mice are individually placed in wire mesh stick cages (4"×4" by 10") and are allowed one hour for adaptation and exploration of the new environment.
For evaluation of climbing, 3 readings are taken at 10, 20 and 30 minutes after apomorphine administration according to the following scale: […]
Mice consistently climbing before the injection of apormorphine will be discarded.
With full-developed apomorphine climbing, the animals are hanging onto the cage walls, rather motionless, over longer periods of time. By contrast, climbs due to mere motor stimulation usually only last a few seconds.
The climbing scores are individually totaled (maximal score: 6 per mouse over 3 readings) and the total score of the control group (vehicle intraperitoneally--apomorphine subcutaneously) is set to 100%.

Row | SMILES | ED50
1 | Cl.O=C(CCCN1CCC(c2noc3cc(Cl)ccc23)CC1)c1ccc(F)cc1 [3-[1-(4-Fluorobenzoylpropyl)-4-piperidyl]-6-chloro-1,2-benzisoxazole hydrochloride] | 0.27 mg/kg
2 | Fc1ccc2c(CCCN3CCC(c4noc5ccc(F)cc45)CC3)noc2c1 [3-[1-(6-Fluoro-1,2-benzisoxazol-3-propyl)-4-piperidyl]-5-fluoro-1,2-benzisoxazole hydrochloride] | 3.4 mg/kg
3 | COc1ccc2onc(C3CCN(CCCc4noc5cc(F)ccc45)CC3)c2c1 [3-[1-(6-Fluoro-1,2-benzisoxazole-3-propyl)-4-piperidyl]-5-methoxy-1,2-benzisoxazole hydrobromide] | 7.23 mg/kg
4 | O=c1[nH]c2ccccc2n1CCCN1CCC(c2noc3ccccc23)CC1 [3-{1,3-dihydro-2-oxo-2H-benzmidazol-1-ylpropyl]-4-piperidyl}-1,2-benzisoxazole] | 0.36 mg/kg
5 | Br.O=c1[nH]c2ccccc2n1CCN1CCC(c2noc3ccccc23)CC1 [3-{1-[1,3-Dihydro-2-oxo-2H-benzimidazol-1-ylethyl]-4-piperidyl}1,2-benzisoxazole hydrobromide] | 7.7 mg/kg
6 | Fc1ccc(C(CCCN2CCC(c3noc4ccc(F)cc34)CC2)c2ccc(F)cc2)cc1 [3-{1-[4,4-bis-Fluorophenyl)-1-butyl]-4-piperidyl}-5-fluoro-1,2-benzisoxazole hydrochloride] | 1.6 mg/kg
7 | Cc1[nH]c2ccccc2c1CCCN1CCC(c2noc3cc(F)ccc23)CC1 [3-{3-[4-(6-Fluoro-1,2-benzisoxazol-3-yl)piperidyl]propyl}-2-methylindole] | 0.16 mg/kg
8 | Cl.Fc1ccc(C(CCCN2CCC(c3noc4cc(Cl)ccc34)CC2)c2ccc(F)cc2)cc1 [6-Chloro-3{1-[4,4-bis(4-fluorophenyl)-1-butyl]-4-piperidyl}-1,2-benzisoxazole hydrochloride] | 6.4 mg/kg
9 | Fc1ccc(C(CCCN2CCC(c3noc4cc(F)ccc34)CC2)c2ccc(F)cc2)cc1 [6-Fluoro-3-{1-[4,4-bis(4-fluorophenyl)-1-butyl]-4-piperidyl]-1,2-benzisoxable hydrobromide] | 0.58 mg/kg
10 | CCN1CCCC1CNC(=O)c1cc(S(N)(=O)=O)ccc1OC (centres unmarked) [sulpiride, reference compound] | 14.5 mg/kg

same assay, conditions: Mus musculus, ip, intraperitoneal 30 min before apomorphine 1.5 mg/kg s.c., climbing scored at 10, 20 and 30 min, linear regression, read-out: N[…] (ED50 mg/kg)

Row | SMILES | ED50
11 | O=C(CCCN1CCC(O)(c2ccc(Cl)cc2)CC1)c1ccc(F)cc1 [haloperidol, reference compound] | 0.11 mg/kg
